Laboratory results taken from patent publication US9289488B2, “Vaccine engineering” (AC Immune SA, priority 2010, dated 2016).
Where two headings read alike, the source gives them in different places. K(Palm) = lysine with palmitoylated side chain (X = Palmitoyl); K(Ac) = lysine with acetylated side chain (X = Acetyl)

Assays:
[1] = CD spectroscopy of peptide secondary structure; type: physicochemical; details: PBS; palmitoylated peptides in liposomes, acetylated peptides alone
Procedure: (§1) • CD spectra were acquired on a Jasco-815 spectropolarimeter (Japan) with a 0.1 cm path length quartz cuvette at 23° C. Measurements were made with a 1.0 nm bandwidth and 0.5 nm resolution. A scan speed of 50 nm/min was employed with response time of 1 s. Solvent control spectra (4 scans) were averaged and subtracted from the average of 8 scans of each sample spectra. All spectra ([θ]obs, degrees) were smoothed after being converted to mean residue molar ellipticity ([θ], degrees cm^2 dmol^−1) with the equation [θ]=[θ]obs×(MRW/10lc), where MRW is the mean residue molecular weight (MW/number of residues), l is the optical path length (cm) and c is the concentration (g/cm^3). […] Spectra of the corresponding empty liposomes lacking peptide were subtracted. A2 ThT Fluorescence. • Fluorescence emission spectra were measured at 25° C. on a Tecan M200 spectrofluorimeter with an excitation of 440 nm. […] Data were fitted using non-linear regression analysis (SigmaPlot v10.0) assuming single-site binding saturation in order to calculate apparent Kd and maximal binding Bmax. A3 Disaggregation Assay Using ThT Fluorescence. • ZnCl2, FeCl3 or CuCl2 (2 μL, 1 mM in H2O) were incubated with liposomes diluted 4-fold in PBS (48 μL) for 2 h at 22° C. PBS (48 μL) with or without DPTA (0.4 mM) was added accordingly after 5 min. ThT (2 μL, 2.4 mM in H2O) was then added and fluorescence measured after a further 5 min. For disaggregation with small molecules, Rosmarinic acid, Tannic acid or Methylene Blue (2 μL, 2.7 mM in PBS) were added to 86 μL of liposomes diluted 8-fold with PBS. After 2 h incubation at RT, ThT (2 μL, 2.4 mM in H2O) was added and after 10 min. fluorescence was measured at 490 nm (Ex. 440 nm). A4 MAS-NMR Spectroscopy. • Experiments were conducted using a 3.2 mm triple-resonance (^1H, ^13C, ^15N) MAS probe (Bruker Biospin, Germany) at a static magnetic field of 16.4 T corresponding to 700 MHz proton resonance frequency. […] Experiments were recorded using 10 kHz MAS and at effective sample temperature of about 4° C. After a cross polarization (CP) step employing a contact time of 600 μs, the SPC5 pulse sequence was used for generation of DQ coherence, with a ^13C radio frequency (r.f.) field strength of 50 kHz and DQ excitation and reconversion time totaling 2.28 ms. Acquisition involved in each case 110K repetitions. An ^1H field strength of 83.3 kHz was used during excitation and SPINAL64 proton decoupling. A5 SPR Analysis of Peptide-Liposome Interactions. • Experiments were performed at 25° C. using 0.2 μm filtered and degassed PBS as running buffer. An L1 sensor chip (GE Healthcare, Sweden) was docked into a BIAcore 1000 instrument and the chip surface conditioned by injection of 50 μL of Zwittergent at 30 μL/min. Liposomes lacking peptide (‘empty’ liposomes) were then immobilized onto the sensor chip following 2 successive injections of 50 μL at 2 μL/min. Finally 50 μL of 50 mM NaOH was injected over the surface at 30 μL/min in order to render the surface more unilamellar. […] 50 μL of acetylated peptides solubilized in PBS were then injected over the surface over a range of concentrations at a flow rate of 30 μL/min, followed by dissociation with PBS for 300 s. After analysis of the interaction of different peptides, a fresh lipid bilayer was immobilized. A6 Dynamic Light Scattering. • Liposome samples were diluted 100-fold with PBS. Analysis was performed using a Zetasizer Nano (Malvern, USA) at 25° C. Data was analyzed with DTS 5.0 (Malvern) software by signal intensity in order to calculate the average liposome diameter and polydispersity index (PDI). A7 Cryo-EM. • Liposome sample was diluted 6-fold with PBS and then 3 μL was applied on glow discharged R 2/4 holey carbon grids (Quantifoil®), blotted off, and plunged frozen into liquid ethane under temperature and humidity controlled conditions using the Vitribot™ (FEI, The Netherlands).

[2] = ThT fluorescence binding to liposomal peptide constructs; details: for Kd: ThT binding, single site fit, read-out: App. Kd; for Kd / Bmax: liposomes DMPC/DMPG/cholesterol/MPLA 9:1:7:0.06, diluted 8-fold; for Bmax: ThT fluorescence at saturation; for Bmax (% rel. ACI-24): relative to ACI-24 (Palm1-15); for ThT fluorescence emission (in words): emission at 485 nm, excitation 440 nm, PBS
Procedure: as §1

[3] = molecular target: T1, β-sheet aggregates of liposomal Palm1-15 (ACI-24) (Homo sapiens, UniProt P05067); assay: Disaggregation assay using ThT fluorescence on ACI-24; type: biochemical; details: for ThT fluorescence after incubation with β-sheet breaker small molecule: ACI-24, 2 h incubation; for decrease of ThT fluorescence upon addition of metal: near stoichiometric metal:peptide (20 μM : 15 μM), 2 h incubation
T1 construct: purchased Bachem (Switzerland); host or cells: chemical synthesis
Procedure: as §1

[4] = reported value; read-out: apparent Kd for the interaction of ThT with Aβ1-40; cited from earlier work

Compound	Secondary structure by CD spectroscopy [1]	Kd [2] [µM]	Bmax [2]	Bmax (% rel. ACI-24) [2] [%]	further results
H-K(X)-K(X)-QHHVEYGSDHRFEAD-K(X)-K(X)-OH [Palm15-1] ({K(Palm)-K(Palm)}-QHHVEYGSDHRFEAD-{K(Palm)-K(Palm)-OH}) [X = Palmitoyl]	β-sheet conformation	7.8	11023	30	–
H-K(X)-K(X)-DAKFRHKSGYKVHHQ-K(X)-K(X)-OH ({K(Ac)-K(Ac)}-DAKFRHKSGYKVHHQ-{K(Ac)-K(Ac)-OH}) [Acetyl1-15(E3K, D7K, E11K), X = Acetyl]	unstructured random coil conformations	–	–	–	–
H-K(X)-K(X)-GHEAYHSVERFDDQH-K(X)-K(X)-OH [scAcetyl15] ({K(Ac)-K(Ac)}-GHEAYHSVERFDDQH-{K(Ac)-K(Ac)-OH}) [X = Acetyl]	unstructured random coil conformations	–	–	–	ThT fluorescence emission (in words) [2]: no fluorescence
H-K(X)-K(X)-DAEFRHKSGYEVHHQ-K(X)-K(X)-OH ({K(Palm)-K(Palm)}-DAEFRHKSGYEVHHQ-{K(Palm)-K(Palm)-OH}) [Palm1-15(D7K), X = Palmitoyl]	–	8.8	21197	58	–
H-K(X)-K(X)-DAKFRHKSGYEVHHQ-K(X)-K(X)-OH ({K(Palm)-K(Palm)}-DAKFRHKSGYEVHHQ-{K(Palm)-K(Palm)-OH}) [Palm1-15(E3K, D7K), X = Palmitoyl]	–	12.1	12567	35	–
H-K(X)-K(X)-DAEFRHKSGYEVHHQ-K(X)-K(X)-OH ({K(Ac)-K(Ac)}-DAEFRHKSGYEVHHQ-{K(Ac)-K(Ac)-OH}) [Acetyl1-15(D7K), X = Acetyl]	unstructured random coil conformations	–	–	–	–
H-K(X)-K(X)-DAKFRHKSGYKVHHQ-K(X)-K(X)-OH ({K(Palm)-K(Palm)}-DAKFRHKSGYKVHHQ-{K(Palm)-K(Palm)-OH}) [Palm1-15(E3K, D7K, E11K), X = Palmitoyl]	–	10.1	24981	69	–
H-K(X)-K(X)-DAEFR-K(X)-K(X)-OH [Palm1-5, X = Palmitoyl]	mixed proportion of extended β-sheet and random coil conformations	0.7	12653	35	ThT fluorescence emission (in words) [2]: lower ThT fluorescence intensity
CN(C)c1ccc2nc3ccc(=[N+](C)C)cc-3sc2c1 [Methylene Blue]	–	–	–	–	ThT fluorescence after incubation with β-sheet breaker small molecule [3]: most efficient disaggregation
H-K(X)-K(X)-DAAFRHKSGYEVHHQ-K(X)-K(X)-OH ({K(Palm)-K(Palm)}-DAAFRHKSGYEVHHQ-{K(Palm)-K(Palm)-OH}) [Palm1-15(E3A, D7K), X = Palmitoyl]	–	14.7	24854	68	–
H-K(X)-K(X)-DAKFRHKSGYEVHHQ-K(X)-K(X)-OH ({K(Ac)-K(Ac)}-DAKFRHKSGYEVHHQ-{K(Ac)-K(Ac)-OH}) [Acetyl1-15(E3K, D7K), X = Acetyl]	unstructured random coil conformations	–	–	–	–
O=C(/C=C/c1ccc(O)c(O)c1)O[C@H](Cc1ccc(O)c(O)c1)C(=O)O [Rosmarinic acid]	–	–	–	–	ThT fluorescence after incubation with β-sheet breaker small molecule [3]: decrease of fluorescence
H-K(X)-K(X)-DAAFRHKSGYEVHHQ-K(X)-K(X)-OH ({K(Ac)-K(Ac)}-DAAFRHKSGYEVHHQ-{K(Ac)-K(Ac)-OH}) [Acetyl1-15(E3A, D7K), X = Acetyl]	unstructured random coil conformations	–	–	–	–
[Cl][Fe]([Cl])[Cl] [Fe(III), FeCl3]	–	–	–	–	decrease of ThT fluorescence upon addition of metal [3]: none
[Cl][Cu][Cl] [Cu(II), CuCl2]	–	–	–	–	EC50 ([3]; ACI-24, ThT fluorescence, read-out: EC50 value for Cu(II) disaggregation): ~3000 nM; decrease of ThT fluorescence upon addition of metal [3]: ~75%
[Cl-].[Cl-].[Zn+2] [Zn(II), ZnCl2]	–	–	–	–	decrease of ThT fluorescence upon addition of metal [3]: ~12%
H-K(X)-K(X)-GHEAYHSVERFDDQH-K(X)-K(X)-OH [scPalm15] ({K(Palm)-K(Palm)}-GHEAYHSVERFDDQH-{K(Palm)-K(Palm)-OH}) [X = Palmitoyl]	β-sheet conformation	7.9	13844	38	–
O=C(OC[C@H]1O[C@@H](OC(=O)c2cc(O)c(O)c(OC(=O)c3cc(O)c(O)c(O)c3)c2)[C@H](OC(=O)c2cc(O)c(O)c(OC(=O)c3cc(O)c(O)c(O)c3)c2)[C@@H](OC(=O)c2cc(O)c(O)c(OC(=O)c3cc(O)c(O)c(O)c3)c2)[C@@H]1OC(=O)c1cc(O)c(O)c(OC(=O)c2cc(O)c(O)c(O)c2)c1)c1cc(O)c(O)c(OC(=O)c2cc(O)c(O)c(O)c2)c1 [Tannic acid]	–	–	–	–	ThT fluorescence after incubation with β-sheet breaker small molecule [3]: decrease of fluorescence
Aβ1-40: β-amyloid peptide Aβ1-40	–	–	–	–	Kd [4]: 11 µM
H-K(X)-K(X)-QHHVEYGSDHRFEAD-K(X)-K(X)-OH [Acetyl15-1] ({K(Ac)-K(Ac)}-QHHVEYGSDHRFEAD-{K(Ac)-K(Ac)-OH}) [X = Acetyl]	unstructured random coil conformations	–	–	–	ThT fluorescence emission (in words) [2]: no fluorescence
